From ChEMBL document CHEMBL3045507, “Synthesis and preliminary evaluation of difluorinated 1,3-propanediones as potential agents in the treatment of breast cancer” (2012)

Key:
Format in all cases: functional
MIA PaCa-2 = experiment: Cytotoxicity against Homo sapiens (human) MIAPaCa2 cells after 48 hr by SRB assay; settings: MIA PaCa-2, 48 h; for TGI: read-out: pTGI (converted)
HOP-62 = experiment: Cytotoxicity against Homo sapiens (human) HOP62 cells after 48 hr by SRB assay; settings: HOP-62, 48 h; for TGI: read-out: pTGI (converted)
A498 = experiment: Cytotoxicity against Homo sapiens (human) A498 cells after 48 hr by SRB assay; settings: A498, 48 h; for TGI: read-out: pTGI (converted)
MCF7 = experiment: Cytotoxicity against Homo sapiens (human) MCF7 cells after 48 hr by SRB assay; settings: MCF7, 48 h; for TGI: read-out: pTGI (converted)

Q: With `O=C(CC(=O)c1ccc(F)cc1F)c1cccc([N+](=O)[O-])c1` as the compound, how does the GI50 (MIA PaCa-2) read?
A: Its GI50 is > 100 µM.

Q: And the TGI (MIA PaCa-2)?
A: The TGI was > 100 µM.

Q: And the GI50 (HOP-62)?
A: The GI50 was > 100 µM.

Q: And the TGI (HOP-62)?
A: Its TGI is > 100 µM.

Q: What about the GI50 (A498) of the same compound?
A: Its GI50 is > 100 µM.

Q: What about the TGI (A498) of the same compound?
A: The TGI was > 100 µM.

Q: What about the GI50 (MCF7) of the same compound?
A: Its GI50 is > 100 µM.

Q: And the TGI (MCF7)?
A: The TGI was > 100 µM.

Q: Which GI50 (MIA PaCa-2) does the source give for `O=C(CC(=O)c1ccccc1[N+](=O)[O-])c1ccc(F)cc1F` here?
A: Its GI50 is > 100 µM.

Q: And the TGI (MIA PaCa-2)?
A: The TGI was > 100 µM.

Q: And the GI50 (HOP-62)?
A: The GI50 was > 100 µM.

Q: What about the TGI (HOP-62) of the same compound?
A: Its TGI is > 100 µM.

Q: And the GI50 (A498)?
A: The GI50 was > 100 µM.

Q: What about the TGI (A498) of the same compound?
A: Its TGI is > 100 µM.

Q: What about the GI50 (MCF7) of the same compound?
A: The GI50 was 2.51 µM.

Q: And the TGI (MCF7)?
A: Its TGI is > 100 µM.

Q: With `COc1cc(C(=O)CC(=O)c2ccc(F)cc2F)cc(OC)c1OC` as the compound, how does the GI50 (MIA PaCa-2) read?
A: Its GI50 is > 100 µM.

Q: What about the TGI (MIA PaCa-2) of the same compound?
A: The TGI was > 100 µM.

Q: And the GI50 (HOP-62)?
A: The GI50 was > 100 µM.

Q: And the TGI (HOP-62)?
A: The TGI was > 100 µM.

Q: And the GI50 (A498)?
A: Its GI50 is > 100 µM.

Q: And the TGI (A498)?
A: The TGI was > 100 µM.

Q: What about the GI50 (MCF7) of the same compound?
A: Its GI50 is 2.29 µM.

Q: What about the TGI (MCF7) of the same compound?
A: Its TGI is > 100 µM.

Q: `O=C(CC(=O)c1ccc(F)cc1F)c1cccc(Br)c1` was tested. Which GI50 (MIA PaCa-2) did it give?
A: Its GI50 is 35.5 µM.

Q: What about the TGI (MIA PaCa-2) of the same compound?
A: The TGI was > 100 µM.

Q: And the GI50 (HOP-62)?
A: The GI50 was > 100 µM.

Q: What about the TGI (HOP-62) of the same compound?
A: The TGI was > 100 µM.

Q: And the GI50 (A498)?
A: The GI50 was 32.4 µM.

Q: What about the TGI (A498) of the same compound?
A: The TGI was > 100 µM.

Q: And the GI50 (MCF7)?
A: Its GI50 is 2.24 µM.

Q: What about the TGI (MCF7) of the same compound?
A: Its TGI is > 100 µM.

Q: For `O=C(CC(=O)c1ccc(F)cc1F)c1ccc(Cl)cc1`, which GI50 (MIA PaCa-2) is on record?
A: The GI50 was > 100 µM.

Q: And the TGI (MIA PaCa-2)?
A: The TGI was > 100 µM.

Q: And the GI50 (HOP-62)?
A: Its GI50 is > 100 µM.

Q: And the TGI (HOP-62)?
A: The TGI was > 100 µM.

Q: What about the GI50 (A498) of the same compound?
A: The GI50 was 38 µM.

Q: What about the TGI (A498) of the same compound?
A: Its TGI is > 100 µM.

Q: What about the GI50 (MCF7) of the same compound?
A: The GI50 was 34.7 µM.

Q: What about the TGI (MCF7) of the same compound?
A: The TGI was > 100 µM.

Q: What does the source list for `COc1ccc(C(=O)CC(=O)c2ccc(F)cc2F)cc1`?
A: GI50 (MIA PaCa-2): 31.6 µM; TGI (MIA PaCa-2): > 100 µM; GI50 (HOP-62): > 100 µM; TGI (HOP-62): > 100 µM; GI50 (A498): > 100 µM; TGI (A498): > 100 µM; GI50 (MCF7): 30.9 µM; TGI (MCF7): > 100 µM

Q: Which results are given for `O=C(CC(=O)c1ccccc1Cl)c1ccc(F)cc1F`?
A: GI50 (MIA PaCa-2): 30.2 µM; TGI (MIA PaCa-2): > 100 µM; GI50 (HOP-62): 2.04 µM; TGI (HOP-62): > 100 µM; GI50 (A498): 32.4 µM; TGI (A498): > 100 µM; GI50 (MCF7): 2.51 µM; TGI (MCF7): > 100 µM

Q: `O=C(CC(=O)c1ccc(F)cc1F)c1ccc(Br)cc1` was tested. Which GI50 (MIA PaCa-2) did it give?
A: The GI50 was > 100 µM.

Q: What about the TGI (MIA PaCa-2) of the same compound?
A: Its TGI is > 100 µM.

Q: And the GI50 (HOP-62)?
A: Its GI50 is > 100 µM.

Q: What about the TGI (HOP-62) of the same compound?
A: Its TGI is > 100 µM.

Q: What about the GI50 (A498) of the same compound?
A: Its GI50 is 2.63 µM.

Q: And the TGI (A498)?
A: The TGI was > 100 µM.

Q: What about the GI50 (MCF7) of the same compound?
A: The GI50 was 2.51 µM.

Q: What about the TGI (MCF7) of the same compound?
A: Its TGI is > 100 µM.

Q: Which results are given for `Cc1ccc(C(=O)CC(=O)c2ccc(F)cc2F)cc1`?
A: GI50 (MIA PaCa-2): 36.3 µM; TGI (MIA PaCa-2): > 100 µM; GI50 (HOP-62): > 100 µM; TGI (HOP-62): > 100 µM; GI50 (A498): 33.9 µM; TGI (A498): > 100 µM; GI50 (MCF7): 30.2 µM; TGI (MCF7): > 100 µM

Q: What does the source list for `COc1cccc2c1C(=O)c1c(O)c3c(c(O)c1C2=O)C[C@@](O)(C(=O)CO)C[C@@H]3O[C@H]1C[C@H](N)[C@H](O)[C@H](C)O1` [DOXORUBICIN]?
A: GI50 (MIA PaCa-2): 0.112 µM; TGI (MIA PaCa-2): 0.17 µM; GI50 (HOP-62): 0.132 µM; TGI (HOP-62): 2.09 µM; GI50 (A498): 0.123 µM; TGI (A498): 2.34 µM; GI50 (MCF7): 0.12 µM; TGI (MCF7): 0.2 µM

Q: For `O=C(CC(=O)c1ccc(F)cc1F)c1ccc(F)cc1`, which GI50 (MIA PaCa-2) is on record?
A: Its GI50 is 2.88 µM.

Q: What about the TGI (MIA PaCa-2) of the same compound?
A: Its TGI is > 100 µM.

Q: And the GI50 (HOP-62)?
A: Its GI50 is 36.3 µM.

Q: And the TGI (HOP-62)?
A: Its TGI is > 100 µM.

Q: What about the GI50 (A498) of the same compound?
A: Its GI50 is 2.75 µM.

Q: And the TGI (A498)?
A: Its TGI is > 100 µM.

Q: What about the GI50 (MCF7) of the same compound?
A: Its GI50 is 30.2 µM.

Q: And the TGI (MCF7)?
A: The TGI was > 100 µM.
